In US10716313B2, “Ampicillin resistant texturizing lactic acid bacteria strains” (Chr. Hansen A/S, priority 2012, dated 2020):

Tested on: Lactobacillus delbrueckii subsp. bulgaricus
Assay: Ampicillin growth reduction (OD600) in MRS broth
Assay type: cell-based
Conditions: at least 20 hours at 37° C., stated as typical
Protocol: In order to isolate ampicillin resistant mutants of the Lactobacillus delbrueckii subsp. bulgaricus strain CHCC13995, cells derived from the growth of a single colony were inoculated anaerobically into 10 ml MRS broth containing one of the following amounts of ampicillin, 0 ng/ml, 100 ng/ml, 200 ng/ml, 300 ng/ml, 400 ng/ml, 500 ng/ml, 600 ng/ml or 700 ng/ml, and grown for at least 20 hours at 37° C. After the 20 hours of growth OD600 is measured for all samples. Typically the concentration of ampicillin that reduces the OD600 measured anaerobic growth of Lactobacillus delbrueckii subsp. bulgaricus with at least 20% as compared to the growth in MRS medium without ampicillin (i.e. with 0 ng/ml ampicillin) is higher than 300 ng/ml. Cultures where the concentration of ampicillin was 500 ng/ml were diluted and plated on MRS agar plates with no ampicillin added and then incubated anaerobically for at least 20 hours at 37° C. Colonies were then picked and screened for anaerobic growth at 37° C. in microtiter plates in the presence of 500 ng/ml ampicillin. Typically, 25% of the resulting colonies were identified as fast growers in the presence of ampicillin. These were chosen for further study. The selected ampicillin resistant mutants were further purified and tested for their ability to grow in milk. […]

## CC1(C)S[C@@H]2[C@H](NC(=O)[C@H](N)c3ccccc3)C(=O)N2[C@H]1C(=O)O [ampicillin]
  concentration of ampicillin that reduces the OD600 measured anaerobic growth with at least 20% as compared to the growth in MRS medium without ampicillin: higher than 300 ng/ml
